ChEMBL document CHEMBL1806424, “The novel 3,4-dihydropyrimidin-2(1H)-one urea derivatives of N-aryl urea: synthesis, anti-inflammatory, antibacterial and antifungal activity evaluation” (2011)
≈ marks a conversion by molar mass, not a printed value. Calls of active or inactive are those of the source. The calls are words filed in the database; no cut-off is given here.

Key:
[1] = tested on: Staphylococcus aureus; assay: Antibacterial activity against Staphylococcus aureus; format: functional
[2] = tested on: Candida albicans; assay: Antifungal activity against Candida albicans; format: functional
[3] = tested on: THP-1; assay: Antiinflammatory activity in human THP1 cells assessed as inhibition of LPS-induced TNFalpha production at 10 uM treated 30 mins before LPS challenge measured after 24 hrs by ELISA; format: functional
[4] = tested on: Salmonella typhimurium; assay: Antibacterial activity against Salmonella Typhimurium; format: functional, Salmonella enterica subsp. enterica serovar Typhimurium; conditions: Salmonella enterica
[5] = tested on: Aspergillus niger; assay: Antifungal activity against Aspergillus niger; format: functional
[6] = tested on: Bacillus subtilis; assay: Antibacterial activity against Bacillus subtilis; format: functional
[7] = tested on: Fusarium solani; assay: Antifungal activity against Fusarium solani; format: functional
[8] = tested on: Aspergillus flavus; assay: Antifungal activity against Aspergillus flavus; format: functional
[9] = tested on: THP-1; assay: Antiinflammatory activity in human THP1 cells assessed as inhibition of LPS-induced IL6 production at 10 uM treated 30 mins before LPS challenge measured after 24 hrs by ELISA; format: functional
[10] = tested on: Escherichia coli; assay: Antibacterial activity against Escherichia coli; format: functional
[11] = tested on: Aspergillus niger; assay: Ratio of miconazole MIC to compound MIC for Aspergillus niger; format: functional
[12] = tested on: Escherichia coli; assay: Ratio of ciprofloxacin MIC to compound MIC for Escherichia coli; format: functional
[13] = tested on: Aspergillus flavus; assay: Ratio of miconazole MIC to compound MIC for Aspergillus flavus; format: functional
[14] = tested on: Staphylococcus aureus; assay: Ratio of ciprofloxacin MIC to compound MIC for Staphylococcus aureus; format: functional
[15] = tested on: Bacillus subtilis; assay: Ratio of ciprofloxacin MIC to compound MIC for Bacillus subtilis; format: functional
[16] = tested on: Candida albicans; assay: Ratio of miconazole MIC to compound MIC for Candida albicans; format: functional
[17] = tested on: Fusarium solani; assay: Ratio of miconazole MIC to compound MIC for Fusarium solani; format: functional
[18] = tested on: Salmonella typhimurium; assay: Ratio of ciprofloxacin MIC to compound MIC for Salmonella Typhimurium; format: functional, Salmonella enterica subsp. enterica serovar Typhimurium
[19] = tested on: Aspergillus niger; assay: Antifungal activity against Aspergillus niger at 200 ug/ml; format: functional, organism-based
[20] = tested on: Escherichia coli; assay: Antibacterial activity against Escherichia coli at 200 ug/ml; format: functional, organism-based
[21] = tested on: Aspergillus flavus; assay: Antifungal activity against Aspergillus flavus at 200 ug/ml; format: functional, organism-based
[22] = tested on: Salmonella typhimurium; assay: Antibacterial activity against Salmonella Typhimurium at 200 ug/ml; format: functional, organism-based; conditions: Salmonella enterica subsp. enterica serovar Typhimurium
[23] = tested on: Fusarium solani; assay: Antifungal activity against Fusarium solani at 200 ug/ml; format: functional, organism-based
[24] = tested on: Bacillus subtilis; assay: Antibacterial activity against Bacillus subtilis at 200 ug/ml; format: functional, organism-based
[25] = tested on: Candida albicans; assay: Antifungal activity against Candida albicans at 200 ug/ml; format: functional, organism-based
[26] = tested on: Staphylococcus aureus; assay: Antibacterial activity against Staphylococcus aureus at 200 ug/ml; format: functional, organism-based

| Structure (SMILES) | MIC [1] [µg/mL] | MIC [2] [µg/mL] | MIC [4] [µg/mL] | MIC [5] [µg/mL] | MIC [6] [µg/mL] | MIC [7] [µg/mL] | MIC [8] [µg/mL] | MIC [10] [µg/mL] | inhibition at 10 µM [3] [%] | inhibition at 10 µM [9] [%] | further results |
| --- | --- | --- | --- | --- | --- | --- | --- | --- | --- | --- | --- |
| CCOC(=O)C1=C(C)NC(=S)NC1c1ccc(N)cc1 (stereo not drawn) | 40 (≈ 137 µM) | 55 (≈ 189 µM) | 60 (≈ 206 µM) | 40 (≈ 137 µM) | 55 (≈ 189 µM) | 45 (≈ 154 µM) | 60 (≈ 206 µM) | 40 (≈ 137 µM) | 0 | 3 | – |
| CCOC(=O)C1=C(C)NC(=S)NC1c1ccc(NC(=O)Nc2ccccc2F)cc1 (stereo not drawn) | 10 (≈ 23.3 µM) | 10 (≈ 23.3 µM) | 40 (≈ 93.4 µM) | 10 (≈ 23.3 µM) | 15 (≈ 35 µM) | 15 (≈ 35 µM) | 10 (≈ 23.3 µM) | 10 (≈ 23.3 µM) | 0 | 40 | Ratio [11]: 2.5; Ratio [12]: 1.5; Ratio [13]: 2.5; Ratio [14]: 1.5; Ratio [15]: 1.5; Ratio [16]: 2.5; Ratio [17]: 2.5; Ratio [18]: 1.5 |
| CCOC(=O)C1=C(C)NC(=S)NC1c1ccc(NC(=O)Nc2c(Cl)cccc2C(F)(F)F)cc1 (stereo not drawn) | 40 (≈ 78 µM) | 60 (≈ 117 µM) | 90 (≈ 175 µM) | 65 (≈ 127 µM) | 85 (≈ 166 µM) | 80 (≈ 156 µM) | 55 (≈ 107 µM) | 60 (≈ 117 µM) | 0 | 39 | – |
| CCOC(=O)C1=C(C)NC(=S)NC1c1ccc(NC(=O)Nc2ccc(C(F)(F)F)cc2Cl)cc1 (stereo not drawn) | 35 (≈ 68.2 µM) | 35 (≈ 68.2 µM) | 55 (≈ 107 µM) | 40 (≈ 78 µM) | 35 (≈ 68.2 µM) | 60 (≈ 117 µM) | 35 (≈ 68.2 µM) | 25 (≈ 48.7 µM) | 16 | 73 | – |
| CCOC(=O)C1=C(C)NC(=S)NC1c1ccc(NC(=O)Nc2cc(C(F)(F)F)ccc2Cl)cc1 (stereo not drawn) | 55 (≈ 107 µM) | 60 (≈ 117 µM) | 90 (≈ 175 µM) | 80 (≈ 156 µM) | 85 (≈ 166 µM) | 85 (≈ 166 µM) | 90 (≈ 175 µM) | 80 (≈ 156 µM) | 68 | 92 | – |
| CCOC(=O)C1=C(C)NC(=S)NC1c1ccc(NC(=O)Nc2ccc(OC)cc2)cc1 (stereo not drawn) | 15 (≈ 34.1 µM) | 10 (≈ 22.7 µM) | 45 (≈ 102 µM) | 25 (≈ 56.8 µM) | 20 (≈ 45.4 µM) | 30 (≈ 68.1 µM) | 30 (≈ 68.1 µM) | 15 (≈ 34.1 µM) | 0 | 42 | – |
| CCCCc1ccc(NC(=O)Nc2ccc(C3NC(=S)NC(C)=C3C(=O)OCC)cc2)cc1 (stereo not drawn) | – | – | – | – | – | – | – | 95 (≈ 204 µM) | 0 | 10 | Activity [25]: inactive; Activity [19]: inactive; Activity [26]: inactive; Activity [21]: inactive; Activity [22]: inactive; Activity [23]: inactive; Activity [24]: inactive |

The next lines start with results.

| MIC [1] [µg/mL] | MIC [2] [µg/mL] | MIC [4] [µg/mL] | MIC [5] [µg/mL] | MIC [6] [µg/mL] | MIC [7] [µg/mL] | MIC [8] [µg/mL] | MIC [10] [µg/mL] | Structure (SMILES) | inhibition at 10 µM [3] [%] | inhibition at 10 µM [9] [%] | further results |
| --- | --- | --- | --- | --- | --- | --- | --- | --- | --- | --- | --- |
| 40 (≈ 87.2 µM) | 40 (≈ 87.2 µM) | 80 (≈ 174 µM) | 55 (≈ 120 µM) | 65 (≈ 142 µM) | 40 (≈ 87.2 µM) | 40 (≈ 87.2 µM) | 55 (≈ 120 µM) | CCOC(=O)C1=C(C)NC(=S)NC1c1ccc(NC(=O)Nc2c(C)cccc2Cl)cc1 (stereo not drawn) | 2 | 11 | – |
| 85 (≈ 188 µM) | 90 (≈ 199 µM) | 95 (≈ 210 µM) | 90 (≈ 199 µM) | 85 (≈ 188 µM) | 80 (≈ 177 µM) | 95 (≈ 210 µM) | 55 (≈ 122 µM) | CCOC(=O)C1=C(C)NC(=S)NC1c1ccc(NC(=O)Nc2ccc(C(C)C)cc2)cc1 (stereo not drawn) | 30 | 65 | – |
| 90 (≈ 202 µM) | 95 (≈ 213 µM) | – | – | – | – | – | – | CCOC(=O)C1=C(C)NC(=S)NC1c1ccc(NC(=O)Nc2cc(F)cc(F)c2)cc1 (stereo not drawn) | 62 | 86 | Activity [19]: inactive; Activity [20]: inactive; Activity [21]: inactive; Activity [22]: inactive; Activity [23]: inactive; Activity [24]: inactive |
| 30 (≈ 60.7 µM) | 15 (≈ 30.3 µM) | 20 (≈ 40.4 µM) | 20 (≈ 40.4 µM) | 30 (≈ 60.7 µM) | 15 (≈ 30.3 µM) | 15 (≈ 30.3 µM) | 25 (≈ 50.6 µM) | CCOC(=O)C1=C(C)NC(=S)NC1c1ccc(NC(=O)Nc2ccccc2OC(F)(F)F)cc1 (stereo not drawn) | 20 | 60 | – |
| 25 (≈ 52.2 µM) | 25 (≈ 52.2 µM) | 30 (≈ 62.7 µM) | 40 (≈ 83.6 µM) | 25 (≈ 52.2 µM) | 30 (≈ 62.7 µM) | 30 (≈ 62.7 µM) | 15 (≈ 31.3 µM) | CCOC(=O)C1=C(C)NC(=S)NC1c1ccc(NC(=O)Nc2ccccc2C(F)(F)F)cc1 (stereo not drawn) | 10 | 27 | – |
| 55 (≈ 111 µM) | 55 (≈ 111 µM) | 60 (≈ 121 µM) | 30 (≈ 60.4 µM) | 40 (≈ 80.6 µM) | 60 (≈ 121 µM) | 60 (≈ 121 µM) | 40 (≈ 80.6 µM) | CCOC(=O)C1=C(C)NC(=S)NC1c1ccc(NC(=O)Nc2c(F)cccc2C(F)(F)F)cc1 (stereo not drawn) | 0 | 27 | – |
